Experimental findings from US7087736B1, “Tyrosine DNA phosphodiesterases (TDP) and related polypeptides nucleic acids vectors TDP producing host cells antibodies and methods of use” (priority 1999, dated 2006) are described below.

The assay deals with Saccharomyces cervisiae strains (parental, enz mutant, HNY243, HNY244). In words: Sensitivity of yeast strains to killing by drug (colony survival after 24 hrs). It counts as cell-based. The source says:
The strains were compared for sensitivity to killing by camptothecin. Despite the dramatic difference in TDP activity, the parental line and the backcrossed enz mutant were insensitive to camptothecin. When combined with a disruption of the RAD9 gene, the camptothecin sensitivity of the low activity mutant (strain HNY244) was increased by a factor of 12 relative to the rad9 derivative of the parental strain HNY243. The same difference was observed after the mutant had undergone two additional rounds of backcrossing. In order to confirm that camptothecin-induced damage was due to topoisomerase trapping, the TOP1 gene of HNY244 was disrupted and survival increased nearly 1,000-fold.
Each pool was separately grown and treated with camptothecin for 24 hours. Cells were grown to near-saturation in medium with glycerol in place of dextrose (YPG) to ensure a starting population with few or no petite derivatives in accordance with standard methods. These cells were resuspended at OD650=0.4 in YPD (bacto-yeast extract, peptone and dextrose standard yeast growth medium), grown for 2 hrs and diluted again in YPD to OD650=0.4. Drug was then added and samples were withdrawn immediately and after 24 hrs at 30° C. After dilution and plating on YPD, surviving colonies were counted after 3-4 days of growth. When plasmid-containing strains were assessed for camptothecin sensitivity, YPD was replaced throughout by uracil-deficient minimal medium to ensure plasmid retention. The survivors were amplified by growth in YPD.

With `COS(C)(=O)=O` [methyl methane sulfonate], where the note is “low TDP activity mutant line”, the “sensitization of the mutant line to killing” value is listed as “not sensitized”.
For `CC[C@@]1(O)C(=O)OCc2c1cc1n(c2=O)Cc2cc3ccccc3nc2-1` [camptothecin], the “camptothecin sensitivity of YBR223c disruption strain” value (HNY243 with YBR223c ORF disrupted) is listed as “very similar to that of HNY244”. Also, for the setting “HNY244 transformed with pNS2 or pAXb”, the “camptothecin resistance after transformation” value is on record as “improved camptothecin resistance”. Also, the “sensitivity to killing by camptothecin” value is, setting by setting: (backcrossed enz mutant (low TDP activity)) “insensitive”; (parental line (normal TDP activity)) “insensitive”. The “increase of camptothecin sensitivity relative to rad9 derivative of parental strain HNY243” value (low activity mutant with RAD9 disruption (strain HNY244)) is 12 factor. In addition, under “strain HNY244 with TOP1 disrupted, camptothecin-induced damage”, the “increase of survival after disruption of TOP1 gene” value is on record as ~1,000 fold.
